In patent US9079913B2, “Spiro-oxindole MDM2 antagonists” (The Regents of the University of Michigan, priority 2009, dated 2015):
“Also recorded” adds a separate entry of the source. Like-named read-outs stand apart in the source and are kept apart here.

What was measured:
[1] = Pharmacokinetic studies in rats; type: in vivo, rat
Experimental: Pharmacokinetic studies on MDM2 inhibitors were carried out in rat. For comparison, the MDM2 inhibitor, AT-219, was also studied.

[2] = system: cancer cell lines with wild-type p53 / mutated or deleted p53 (ATCC); assay: Cell growth assay (WST-8), other cancer cell lines; type: cell-based; details: Homo sapiens
[3] = Animal weight in SJSA-1 xenograft studies; type: in vivo, C.B-17 SCID mice; details: SJSA-1 xenograft mice
Experimental: The size of tumors growing in the mice was measured in two dimensions using calipers. Tumor volume (mm^3)=(A×B2)/2 where A and B are the tumor length and width (in mm), respectively. During treatment, tumor volume and body weight was measured three times a week. After the treatment was stopped, tumor volume (FIGS. 7, 9, 11, and 36) and body weight (FIGS. 8, 10, 12, and 37) was measured at least once a week. Mice were kept for an additional 60 days for further observation of tumor growth and toxicity.
Before treatment began, tumors were allowed to grow to 60-140 mm^3 in volume, at which point the blood vessel supplies to the tumor should have been established. Mice with tumors within acceptable size range were randomized into treatment groups of 8 mice for experimental compounds and 10 mice for the Control group. Experimental compounds were given orally, once per day for 2-3 weeks. The Control group received vehicle alone (10% PEG 400: 3% Cremophor: 87% PBS).

SJSA-1 xenograft tumors = assay: In vivo efficacy, SJSA-1 xenograft model (tumor volume); design: species or system C.B-17 SCID mice; details: for % Tumor Growth Inhib. T/C Control 750 mm^3 D29: Exp. No. 3, SJSA-1 xenograft
Experimental: SJSA-1 tumor cells were harvested with Trypsin (0.05%)-EDTA (0.53 mM) (GIBCO™, Invitrogen Corp.), growth medium added and cells placed on ice. A cell sample was mixed 1:1 with Trypan Blue (GIBCO™, Invitrogen Corp.) and counted on a hemocytometer to determine the number of live/dead cells. Cells were washed once with 1×PBS (GIBCO™, Invitrogen Corp.) and resuspended in PBS. For Matrigel injections, after washing in PBS, cells are resuspended in an ice cold mixture of 1:1 PBS and Matrigel (BD Biosciences, Invitrogen Corp.) for a final Matrigel protein concentration of 5 mg/ml. SJSA-1 tumors were inoculated into C.B-17 SCID mice at 5×10^6 cells in 0.1 ml with Matrigel. Cells were injected s.c. into the flank region of each mouse using a 27 gauge needle.
The size of tumors growing in the mice was measured in two dimensions using calipers. Tumor volume (mm^3)=(A×B2)/2 where A and B are the tumor length and width (in mm), respectively. During treatment, tumor volume and body weight was measured three times a week. […] Mice were kept for an additional 60 days for further observation of tumor growth and toxicity.

[4] = In vitro microsomal stability, human; type: in vitro ADME
[5] = In vitro microsomal stability, rat; type: in vitro ADME
[6] = system: Isogenic HCT-116 colon cancer cell lines; assay: cells; type: cell-based; details: Homo sapiens, cell growth;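 further: cells grown in 96-well plates in McCoy's 5A medium with 10% FBS, exposed to compound for 4 days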
Experimental: Cells were seeded in 96-well flat bottom cell culture plates at a density of 2−3×10^3 cells/well with compounds and incubated for 4 days.

CC(C)(C)C[C@H]1N[C@@H](C(=O)NC2CCC(O)CC2)[C@H](c2cccc(Cl)c2F)[C@@]12C(=O)Nc1cc(Cl)ccc12 (stereo partly shown) [MI-773]
oral bioavailability / oral pharmacokinetics in rats (in words) ([1]; oral dosing, rats): good oral bioavailability; also recorded: high oral bioavailability | CLz ([1]; rat, IV, 5 mg/kg, plasma, parent compound): 16.7 mL/min/kg | Vd ([1]; rat, plasma, iv, 5 mg/kg, rat, IV, 5 mg/kg, plasma, parent compound, read-out: Vz): 3 L/kg | pharmacokinetic profile (in words) ([1]; rats, intravenous and oral routes of dosing): improved PK parameters over MI-219 | IC50 ([2]; LNCaP, read-out: LNCAP (p53 wild-type) IC50): < 1 µM | IC50 ([2]; PC-3, read-out: PC-3 (deleted p53) IC50): > 10 µM | IC50 ([2]; SJSA-1, read-out: SJSA-1 (p53 wild-type) IC50): < 1 µM | weight loss in the animals (in words) [3]: without significant weight loss | % Tumor Growth Inhib. T/C Control 750 mm^3 D24 (SJSA-1 xenograft tumors; Exp. No. 2, SJSA-1 xenograft, PO 100 mg/kg, D24): 3.2% | % Tumor Growth Inhib. T/C Control 750 mm^3 D29 (SJSA-1 xenograft tumors; PO 30 mg/kg): 24.3% | % Tumor Growth Inhib. T/C Control 750 mm^3 D29 (SJSA-1 xenograft tumors; PO 100 mg/kg): 1.2% | in vivo efficacy (in words) (SJSA-1 xenograft tumors; SJSA-1 xenograft, oral once per day 2-3 weeks): good in vivo efficacy | microsomal stability (in words) ([4]; human liver microsomes): more stable than MI-219 | % of compound remaining when incubated in human liver microsomes with NADPH ([4]; human liver microsomes, 0 min): 100.00% | % of compound remaining when incubated in human liver microsomes with NADPH ([4]; human liver microsomes, 5 min): 83.70% | % of compound remaining when incubated in human liver microsomes with NADPH ([4]; human liver microsomes, 10 min): 82.97% | % of compound remaining when incubated in human liver microsomes with NADPH ([4]; human liver microsomes, 15 min): 69.38% | % of compound remaining when incubated in human liver microsomes with NADPH ([4]; human liver microsomes, 30 min): 52.36% | % of compound remaining when incubated in human liver microsomes with NADPH ([4]; human liver microsomes, 45 min): 42.57% | % of compound remaining when incubated in human liver microsomes with NADPH ([4]; human liver microsomes, 60 min): 28.77% | half-life ([4]; human, liver microsomes, human liver microsomes with NADPH): 31.5 min | % of compound remaining when incubated in rat liver microsomes with NADPH ([5]; 0 min): 100.00% | % of compound remaining when incubated in rat liver microsomes with NADPH ([5]; 5 min): 81.32% | % of compound remaining when incubated in rat liver microsomes with NADPH ([5]; 10 min): 60.00% | % of compound remaining when incubated in rat liver microsomes with NADPH ([5]; 15 min): 56.58% | % of compound remaining when incubated in rat liver microsomes with NADPH ([5]; 30 min): 46.11% | % of compound remaining when incubated in rat liver microsomes with NADPH ([5]; 45 min): 41.18% | % of compound remaining when incubated in rat liver microsomes with NADPH ([5]; 60 min): 33.26% | half-life ([5]; rat, liver microsomes, rat liver microsomes with NADPH): 17.3 min | IC50 ([6]; HCT-116, read-out: HCT-116 (p53-/-) IC50, Table 19A, HCT-116 p53-/-): > 10 µM | IC50 ([6]; HCT-116, read-out: HCT-116 (p53 wild-type) IC50, Table 19A, HCT-116 p53 wild-type): < 1 µM
